Laboratory results: US20100292205A1, “Pyrimidone Compounds As GSK-3 Inhibitors” (PFIZER INC., priority 2006, published 2010)
pIC50: −log10 of the molar value.

target: T1, Recombinant human GSK3β (Homo sapiens, UniProt P49841); experiment: GSK-3β (Glycogen Synthase Kinase) cell free enzyme assay; format: biochemical; details: cell free enzyme assay; Examples 62-155
T1 construct: His-tag; made in house; host or cells: Sf9 insect cells / baculovirus
Experimental: Assay Protocol for GSK-3β (Glycogen Synthase Kinase) in a Cell Free Enzyme Assay
Recombinant human GSK3β was expressed in SF9/Baculo virus cells. His-tag protein was purified by affinity chromatography to a Ni-NTA Superflow column. Enzyme activity was assayed as the incorporation of [33P] from the gamma phosphate of [33P]ATP (PerkinElmer) into biotinylated peptide substrate bio-LC-S-R-H-S-S-P-H-Q-pS-E-D-E-E-E-OH (Anaspec). Reactions were carried out in a buffer containing 8 mM MOPS (pH 7.0), 10 mM Magnesium Acetate, 0.2 mM EDTA, 1 mM DTT and 2 uM cold ATP. The 33P-ATP was added for 0.025 uCi/well (120 uL) and the final concentration of substrate was 1.0 uM. Enzyme was preincubated with test agent for 30 minutes at room temperature followed by initiation of the reaction by the addition of substrate mix. Incubations were carried out at RT for 60 min. Reactions were stopped by addition of 0.66 volume of buffer containing: 12.5 mM EDTA, 0.25% Triton-X 100, 125 uM ATP, and 6.2 mg/ml streptavidin coated SPA beads (Amersham) in PBS without Ca or Mg. Radioactivity associated with the beads was quantified by scintillation counting of CPM in a Trilux counter (PerkinElmer).
Examples 42 to 60 were prepared using the analogous procedure described to prepare Example 41, substituting the appropriate starting material (Examples 1 to 35) and coupling with the appropriate acid. The assay protocol used is the percent inhibition at 1 μM for GSK-3β in the cell free enzyme assay described above.

T1 sequence (P49841 whole entry): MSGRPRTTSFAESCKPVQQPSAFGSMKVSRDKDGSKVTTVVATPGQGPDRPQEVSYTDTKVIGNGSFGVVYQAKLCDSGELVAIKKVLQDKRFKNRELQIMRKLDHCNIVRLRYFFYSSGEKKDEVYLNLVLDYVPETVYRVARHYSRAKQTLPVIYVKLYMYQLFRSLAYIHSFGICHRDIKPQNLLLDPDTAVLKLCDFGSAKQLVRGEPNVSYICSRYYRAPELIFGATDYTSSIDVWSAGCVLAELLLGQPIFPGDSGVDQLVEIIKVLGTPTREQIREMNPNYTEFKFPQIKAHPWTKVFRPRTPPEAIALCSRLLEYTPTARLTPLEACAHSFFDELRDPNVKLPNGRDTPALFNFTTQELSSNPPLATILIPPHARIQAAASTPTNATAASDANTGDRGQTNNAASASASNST

Structure (SMILES) | pIC50
CCN(c1nc(-c2ccncc2)cc(=O)n1C)C1CCCN(C(=O)c2ccccc2)C1 (centres unmarked) [Example 73, 2-[(1-Benzoylpiperidin-3-yl)(ethyl)amino]-3-methyl-6-pyridin-4-ylpyrimidin-4(3H)-one] | 6.46
CCN(c1nc(-c2ccncc2)cc(=O)n1C)C1CCN(C(=O)c2ccccc2)CC1 [Example 74, 2-[(1-Benzoylpiperidin-4-yl)(ethyl)amino]-3-methyl-6-pyridin-4-ylpyrimidin-4(3H)-one] | 6.84
Cn1c(NC[C@@H]2CCCN2C(=O)c2ccccc2)nc(-c2ccncc2)cc1=O [Example 75, 2-({[(2S)-1-Benzoylpyrrolidin-2-yl]methyl}amino)-3-methyl-6-pyridin-4-ylpyrimidin-4(3H)-one] | 6.74
Cn1c(NCC2CN(C(=O)c3ccccc3)C2)nc(-c2ccncc2)cc1=O [Example 76, 2-{[(1-Benzoylazetidin-3-yl)methyl]amino}-3-methyl-6-pyridin-4-ylpyrimidin-4(3H)-one] | 7.14
CCN(C[C@H]1CCCN1C(=O)c1ccccc1)c1nc(-c2ccncc2)cc(=O)n1C [Example 77, 2-[{[(2R)-1-Benzoylpyrrolidin-2-yl]methyl}(ethyl)amino]-3-methyl-6-pyridin-4-ylpyrimidin-4(3H)-one] | 7.53
Cn1c(NC[C@H]2CCCN2C(=O)c2ccccc2)nc(-c2ccncc2)cc1=O [Example 78, 2-({[(2R)-1-Benzoylpyrrolidin-2-yl]methyl}amino)-3-methyl-6-pyridin-4-ylpyrimidin-4(3H)-one] | 6.56
Cn1c(NCC2CCN(C(=O)c3ccccc3)C2)nc(-c2ccncc2)cc1=O (centres unmarked) [Example 79, 2-{[(1-Benzoylpyrrolidin-3-yl)methyl]amino}-3-methyl-6-pyridin-4-ylpyrimidin-4(3H)-one] | 7.16
Cn1c(NC2CCCN(C(=O)Cc3ccccc3)CC2)nc(-c2ccncc2)cc1=O (centres unmarked) [Example 80, 3-Methyl-2-{[1-(phenylacetyl)azepan-4-yl]amino}-6-pyridin-4-ylpyrimidin-4(3H)-one] | 7.27
Cn1c(NC2CCN(C(=O)Cc3ccccc3)C2)nc(-c2ccncc2)cc1=O (centres unmarked) [Example 81, 3-Methyl-2-{[1-(phenylacetyl)pyrrolidin-3-yl]amino}-6-pyridin-4-ylpyrimidin-4(3H)-one] | 6.95
Cn1c(NC2CN(C(=O)Cc3ccccc3)C2)nc(-c2ccncc2)cc1=O [Example 82, 3-Methyl-2-{[1-(phenylacetyl)azetidin-3-yl]amino}-6-pyridin-4-ylpyrimidin-4(3H)-one] | 6.09
Cn1c(N[C@H]2CN(C(=O)Cc3ccccc3)C[C@@H]2F)nc(-c2ccncc2)cc1=O [Example 83, 2-{[(3S,4S)-4-Fluoro-1-(phenylacetyl)pyrrolidin-3-yl]amino}-3-methyl-6-pyridin-4-ylpyrimidin-4(3H)-one] | 7.41
Cn1c(NC2CCCCN(C(=O)Cc3ccccc3)C2)nc(-c2ccncc2)cc1=O (centres unmarked) [Example 84, 3-Methyl-2-{[1-(phenylacetyl)azepan-3-yl]amino}-6-pyridin-4-ylpyrimidin-4(3H)-one] | 6.17
Cn1c(NC2CCN(C(=O)Cc3ccccc3)CC2)nc(-c2ccncc2)cc1=O [Example 85, 3-Methyl-2-{[1-(phenylacetyl)piperidin-4-yl]amino}-6-pyridin-4-ylpyrimidin-4(3H)-one] | 6.48
Cn1c(NC2CCCN(C(=O)Cc3ccccc3)C2)nc(-c2ccncc2)cc1=O (centres unmarked) [Example 86, 3-Methyl-2-{[1-(phenylacetyl)piperidin-3-yl]amino}-6-pyridin-4-ylpyrimidin-4(3H)-one] | 6.87
Cn1c(N[C@@H]2CN(C(=O)Cc3ccccc3)C[C@@H]2F)nc(-c2ccncc2)cc1=O [Example 87, 2-{[(3R,4S)-4-Fluoro-1-(phenylacetyl)pyrrolidin-3-yl]amino}-3-methyl-6-pyridin-4-ylpyrimidin-4(3H)-one] | 6.55
CN(c1nc(-c2ccncc2)cc(=O)n1C)C1CCCN(C(=O)Cc2ccccc2)CC1 (centres unmarked) [Example 88, 3-Methyl-2-{methyl[1-(phenylacetyl)azepan-4-yl]amino}-6-pyridin-4-ylpyrimidin-4(3H)-one] | 6.99

Structure (SMILES) | pIC50
CCN(c1nc(-c2ccncc2)cc(=O)n1C)C1CCCN(C(=O)Cc2ccccc2)CC1 (centres unmarked) [Example 89, 2-{Ethyl[1-(phenylacetyl)azepan-4-yl]amino}-3-methyl-6-pyridin-4-ylpyrimidin-4(3H)-one] | 7.19
CN(c1nc(-c2ccncc2)cc(=O)n1C)C1CCN(C(=O)Cc2ccccc2)C1 (centres unmarked) [Example 90, 3-Methyl-2-{methyl[1-(phenylacetyl)pyrrolidin-3-yl]amino}-6-pyridin-4-ylpyrimidin-4(3H)-one] | 6.88
CCN(c1nc(-c2ccncc2)cc(=O)n1C)C1CCCN(C(=O)Cc2ccccc2)C1 (centres unmarked) [Example 91, 2-{Ethyl[1-(phenylacetyl)piperidin-3-yl]amino}-3-methyl-6-pyridin-4-ylpyrimidin-4(3H)-one] | 6.83
CCN(c1nc(-c2ccncc2)cc(=O)n1C)C1CCN(C(=O)Cc2ccccc2)CC1 [Example 92, 2-{Ethyl[1-(phenylacetyl)piperidin-4-yl]amino}-3-methyl-6-pyridin-4-ylpyrimidin-4(3H)-one] | 6.98
Cn1c(NC[C@@H]2CCCN2C(=O)Cc2ccccc2)nc(-c2ccncc2)cc1=O [Example 93, 3-Methyl-2-({[(2S)-1-(phenylacetyl)pyrrolidin-2-yl]methyl}amino)-6-pyridin-4-ylpyrimidin-4(3H)-one] | 6.06
CCN(C[C@H]1CCCN1C(=O)Cc1ccccc1)c1nc(-c2ccncc2)cc(=O)n1C [Example 94, 2-(Ethyl{[(2R)-1-(phenylacetyl)pyrrolidin-2-yl]methyl}amino)-3-methyl-6-pyridin-4-ylpyrimidin-4(3H)-one] | 7.74
Cn1c(NCC2CN(C(=O)Cc3ccccc3)C2)nc(-c2ccncc2)cc1=O [Example 95, 3-Methyl-2-({[1-(phenylacetyl)azetidin-3-yl]methyl}amino)-6-pyridin-4-ylpyrimidin-4(3H)-one] | 5.86
CN(c1nc(-c2ccncc2F)cc(=O)n1C)[C@H]1[C@@H]2CN(C(=O)c3cccc(Cl)n3)C[C@@H]21 [Example 96, 2-[{(1R,5S,6s)-3-[(6-Chloropyridin-2-yl)carbonyl]-3-azabicyclo[3.1.0]hex-6-yl}(methyl)amino]-6-(3-fluoropyridin-4-yl)-3-methylpyrimidin-4(3H)-one] | 8.41
CN(c1nc(-c2ccncc2F)cc(=O)n1C)[C@H]1[C@@H]2CN(C(=O)CC(F)(F)F)C[C@@H]21 [Example 97, 6-(3-Fluoropyridin-4-yl)-3-methyl-2-{methyl[(1R,5S,6s)-3-(3,3,3-trifluoropropanoyl)-3-azabicyclo[3.1.0]hex-6-yl]amino}pyrimidin-4(3H)-one] | 7.26
CN(c1nc(-c2ccncc2F)cc(=O)n1C)[C@H]1[C@@H]2CN(C(=O)c3ccccc3C(F)(F)F)C[C@@H]21 [Example 98, 6-(3-Fluoropyridin-4-yl)-3-methyl-2-(methyl{(1R,5S,6s)-3-[2-(trifluoromethyl)benzoyl]-3-azabicyclo[3.1.0]hex-6-yl}amino)pyrimidin-4(3H)-one] | 8.36
COc1cccc(C(=O)N2C[C@@H]3[C@H](C2)[C@H]3N(C)c2nc(-c3ccncc3F)cc(=O)n2C)c1 [Example 99, 6-(3-Fluoropyridin-4-yl)-2-{[(1R,5S,6s)-3-(3-methoxybenzoyl)-3-azabicyclo[3.1.0]hex-6-yl](methyl)amino}-3-methylpyrimidin-4(3H)-one] | 8.84
CCCC(C)C(=O)N1C[C@@H]2[C@H](C1)[C@H]2N(C)c1nc(-c2ccncc2F)cc(=O)n1C (stereo partly drawn) [Example 100, 6-(3-Fluoropyridin-4-yl)-3-methyl-2-{methyl[(1R,5S,6s)-3-(2-methylpentanoyl)-3-azabicyclo[3.1.0]hex-6-yl]amino}pyrimidin-4(3H)-one] | 8.04
COc1cccc(CC(=O)N2C[C@@H]3[C@H](C2)[C@H]3N(C)c2nc(-c3ccncc3F)cc(=O)n2C)c1 [Example 101, 6-(3-Fluoropyridin-4-yl)-2-[{(1R,5S,6s)-3-[(3-methoxyphenyl)acetyl]-3-azabicyclo[3.1.0]hex-6-yl}(methyl)amino]-3-methylpyrimidin-4(3H)-one] | 7.87
CSCCC(=O)N1C[C@@H]2[C@H](C1)[C@H]2N(C)c1nc(-c2ccncc2F)cc(=O)n1C [Example 102, 6-(3-Fluoropyridin-4-yl)-3-methyl-2-(methyl{(1R,5S,6s)-3-[3-(methylthio)propanoyl]-3-azabicyclo[3.1.0]hex-6-yl}amino)pyrimidin-4(3H)-one] | 7.80
CCC(C)C(=O)N1C[C@@H]2[C@H](C1)[C@H]2N(C)c1nc(-c2ccncc2F)cc(=O)n1C (stereo partly drawn) [Example 103, 6-(3-Fluoropyridin-4-yl)-3-methyl-2-{methyl[(1R,5S,6s)-3-(2-methylbutanoyl)-3-azabicyclo[3.1.0]hex-6-yl]amino}pyrimidin-4(3H)-one] | 8.56
Cc1cc(C(=O)N2C[C@@H]3[C@H](C2)[C@H]3N(C)c2nc(-c3ccncc3F)cc(=O)n2C)cc(Cl)n1 [Example 104, 2-{[(1R,5S,6s)-3-(2-Chloro-6-methylisonicotinoyl)-3-azabicyclo[3.1.0]hex-6-yl](methyl)amino}-6-(3-fluoropyridin-4-yl)-3-methylpyrimidin-4(3H)-one] | 7.79
